Paper PMC11045757, “Group 3 medulloblastoma transcriptional networks collapse under domain specific EP300/CBP inhibition” (Nature Communications, 2024)

Tested on: 460 barcoded cancer cell lines
Assay: PRISM pooled barcoded cancer cell line growth screen, 10-point dose-response, 5 days, AUC
Assay type: cell-based
Set-up: scale not given here
From the text: Several small molecule inhibitors of distinct protein domains of EP300/CBP are available, though the majority target the histone acetyltransferase domain (HAT) or bromodomain (BRD)[5],[10],[21],[22]. […] We used these tools to investigate the relative contribution of the EP300/CBP BRD or HAT domain to tumor cell growth (Fig. 1a). To do so, we performed 10-point, dose-response growth assays using mixed pools of 460 barcoded cancer cell lines, over five days of treatment in vitro[33],[34]. Growth was measured using an area-under-the-curve (AUC) approach (Supplementary Table 1, Supplementary Fig. 1a). […] Given potential differences in compound penetration and solubility, and to compare the relative cell line and tumor-specific effects of these two compounds in assays performed non-simultaneously, we performed a median normalization of each dataset (Supplementary Table 2).

`CNC(=O)Nc1ccc2c(c1)CCC21OC(=O)N(CC(=O)N(Cc2ccc(F)cc2)C(C)C(F)(F)F)C1=O` (stereo not shown) [Compound A485] showed an AUC (MG63, Osteosarcoma) of 0.9115, an AUC (MHHES1, Ewing Sarcoma) of 0.4553 and an AUC (MHHNB11, Neuroblastoma) of 0.7182. The AUC (MIAPACA2, Pancreatic Cancer) was 0.9009, the AUC (MKN1, Gastric Cancer) was 0.9671 and the AUC (MKN7, Gastric Cancer) was 0.9501. It also gave an AUC (MKN45, Gastric Cancer) of 0.5235, an AUC (MOLM13, AML) of 0.5776 and an AUC (MOLM16, AML) of 1. It also gave an AUC (MOLT3, T-acute leukemia) of 0.8162, an AUC (MOLT16, T-acute leukemia) of 0.9273 and an AUC (MON, Rhabdoid) of 0.6327. It also gave an AUC (NB1, Neuroblastoma) of 0.493, an AUC (NB4, AML) of 1 and an AUC (NCIH23, Lung Cancer) of 0.8307. For the same compound, the AUC (NCIH28, Lung Cancer) was 0.8488, the AUC (NCIH82, Lung Cancer) was 1 and the AUC (NCIH196, Lung Cancer) was 0.825. The AUC (NCIH211, Lung Cancer) was 0.6824, the AUC (NCIH226, Lung Cancer) was 0.8402 and the AUC (NCIH292, Lung Cancer) was 0.7841. The AUC (NCIH322, Lung Cancer) was 0.7616, the AUC (NCIH358, Lung Cancer) was 0.8611 and the AUC (NCIH441, Lung Cancer) was 0.8818. The AUC (NCIH460, Lung Cancer) was 0.9648, the AUC (NCIH520, Lung Cancer) was 0.9521 and the AUC (NCIH524, Lung Cancer) was 0.8317. For the same compound, the AUC (NCIH596, Lung Cancer) was 0.8954, the AUC (NCIH647, Lung Cancer) was 1 and the AUC (NCIH650, Lung Cancer) was 0.8159. The AUC (NCIH661, Lung Cancer) was 0.6677, the AUC (NCIH747, Colon/Colorectal Cancer) was 0.838 and the AUC (NCIH841, Lung Cancer) was 0.8663. It also gave an AUC (NCIH1048, Lung Cancer) of 0.8631, an AUC (NCIH1299, Lung Cancer) of 0.8424 and an AUC (NCIH1341, Lung Cancer) of 1. The AUC (NCIH1373, Lung Cancer) was 0.7413, the AUC (NCIH1437, Lung Cancer) was 0.6724 and the AUC (NCIH1568, Lung Cancer) was 0.921. The AUC (NCIH1573, Lung Cancer) was 0.8005, the AUC (NCIH1581, Lung Cancer) was 0.7694 and the AUC (NCIH1648, Lung Cancer) was 0.776. It also gave an AUC (NCIH1792, Lung Cancer) of 0.691, an AUC (NCIH1793, Lung Cancer) of 0.7572 and an AUC (NCIH1838, Lung Cancer) of 0.8275. The AUC (NCIH1930, Lung Cancer) was 1, the AUC (NCIH1944, Lung Cancer) was 0.8729 and the AUC (NCIH1975, Lung Cancer) was 0.8115. For the same compound, the AUC (NCIH2004RT, Rhabdoid) was 0.9741, the AUC (NCIH2052, Lung Cancer) was 0.6997 and the AUC (NCIH2122, Lung Cancer) was 0.4802. The AUC (NCIH2170, Lung Cancer) was 0.9434, the AUC (NCIH2172, Lung Cancer) was 0.8484 and the AUC (NCIH2196, Lung Cancer) was 0.8734. It also gave an AUC (NCIH2228, Lung Cancer) of 0.7811, an AUC (NCIH2347, Lung Cancer) of 0.6039 and an AUC (NCIH2444, Lung Cancer) of 0.8316. The AUC (NCO2, CML) was 0.8351, the AUC (NIHOVCAR3, Ovarian Cancer) was 0.9964 and the AUC (NUDHL1, Lymphoma) was 0.9213. The AUC (NUGC3, Gastric Cancer) was 0.8775, the AUC (OAW42, Ovarian Cancer) was 0.7266 and the AUC (OC314, Ovarian Cancer) was 0.891. It also gave an AUC (OC316, Ovarian Cancer) of 0.9187, an AUC (OCIAML2, AML) of 0.6159 and an AUC (OCIAML3, AML) of 0.7819. The AUC (OCILY19, Lymphoma) was 0.6711, the AUC (OCILY132, T-cell lymphoma) was 0.9357 and the AUC (OCIM1, AML) was 0.6185. For the same compound, the AUC (OE19, Esophageal Cancer) was 0.9392, the AUC (OE21, Esophageal Cancer) was 0.6998 and the AUC (ONCODG1, Ovarian Cancer) was 0.9734. The AUC (ONS76, Medulloblastoma) was 0.7969, the AUC (OSRC2, Kidney Cancer) was 0.9758 and the AUC (OV56, Ovarian Cancer) was 0.9822. The AUC (OVCAR8, Ovarian Cancer) was 0.8889, the AUC (OVISE, Ovarian Cancer) was 0.951 and the AUC (OVK18, Ovarian Cancer) was 0.5397. For the same compound, the AUC (OVKATE, Ovarian Cancer) was 0.8663, the AUC (OVTOKO, Ovarian Cancer) was 0.8262 and the AUC (PANC0203, Pancreatic Cancer) was 0.6928. For the same compound, the AUC (PANC0327, Pancreatic Cancer) was 0.889, the AUC (PANC0403, Pancreatic Cancer) was 0.6894 and the AUC (PANC0504, Pancreatic Cancer) was 0.8448. It also gave an AUC (PANC0813, Pancreatic Cancer) of 0.8655, an AUC (PATU8902, Pancreatic Cancer) of 0.9465 and an AUC (PC3, Prostate Cancer) of 0.8494. It also gave an AUC (PECAPJ15, Head and Neck Cancer) of 0.6653, an AUC (PF382, T-acute leukemia) of 0.7674 and an AUC (PK1, Pancreatic Cancer) of 0.6974. The AUC (PK59, Pancreatic Cancer) was 0.9772, the AUC (PSN1, Pancreatic Cancer) was 0.6172 and the AUC (RCM1, Colon/Colorectal Cancer) was 0.8245. For the same compound, the AUC (RD, Rhabdomyosarcoma) was 0.8188, the AUC (RDES, Ewing Sarcoma) was 0.6507 and the AUC (RERFLCAI, Lung Cancer) was 0.874. For the same compound, the AUC (RERFLCKJ, Lung Cancer) was 0.7393, the AUC (RH4, Rhabdomyosarcoma) was 0.678 and the AUC (RH28, Rhabdomyosarcoma) was 1. It also gave an AUC (RH36, Rhabdomyosarcoma) of 1, an AUC (RHJT, Rhabdomyosarcoma) of 1 and an AUC (RI1, B-cell Lymphoma) of 0.6781. The AUC (RL952, Endometrial/Uterine Cancer) was 0.946, the AUC (RL, B-cell Lymphoma) was 0.7056 and the AUC (RPMI8402, T-acute leukemia) was 0.6488. The AUC (RT4, Bladder Cancer) was 0.8068, the AUC (RVH421, Melanoma) was 0.6261 and the AUC (S117, Thyroid Sarcoma) was 0.733. The AUC (SAOS2, Osteosarcoma) was 0.6843, the AUC (SCABER, Bladder Cancer) was 0.7254 and the AUC (SCC9, Head and Neck Cancer) was 0.6982. The AUC (SCC25, Head and Neck Cancer) was 0.8637, the AUC (SCLC21H, Lung Cancer) was 0.7482 and the AUC (SEM, B-cell Leukemia) was 0.591. It also gave an AUC (SF539, Glioma) of 0.7626.
